Experiments:
MCF7 [1] = assay: Cell cycle arrest in human MCF7 cells assessed as accumulation at S phase at 0.250 uM incubated for 72 hrs by PI staining based flow cytometric analysis (reference value: […] +/- 2.6 %); type: functional; conditions: dose 0.25 µM
[2] = Selectivity index, ratio of IC50 for human MRC5 cells to IC50 for human HT29 cells; type: toxicity; conditions: MRC5 cells versus HT29 cells, read-out: Ratio IC50
MCF7 [3] = assay: Induction of apoptosis in human MCF7 cells assessed as necrotic cells at 0.250 uM after 72 hrs by Annexin V-FITC/propidium iodide staining-based flow cytometric analysis (reference value: 6.2 %); type: functional; conditions: dose 0.25 µM
MCF7 [4] = assay: Induction of apoptosis in human MCF7 cells assessed as viable cells at 0.5 uM after 72 hrs by Annexin V-FITC/propidium iodide staining-based flow cytometric analysis (reference value: 86.4 %); type: functional; conditions: read-out: Activity
MCF7 [5] = assay: Cell cycle arrest in human MCF7 cells assessed as accumulation at G1 phase at 0.5 uM incubated for 72 hrs by PI staining based flow cytometric analysis (reference value: 56.9 +/- 5.6 %); type: functional
MCF7 [6] = assay: Induction of apoptosis in human MCF7 cells assessed as early apoptotic cells at 0.250 uM after 72 hrs by Annexin V-FITC/propidium iodide staining-based flow cytometric analysis (reference value: 4.6 %); type: functional; conditions: dose 0.25 µM
MCF7 [7] = assay: Cytotoxicity against human MCF7 cells assessed as reduction in cell viability incubated for 72 hrs by MTT assay; type: functional, cell-based; conditions: MCF7, 72 h
NCI/ADR-RES [8] = assay: Synergistic cytotoxicity against human MCF7/ADR cells assessed as combination index at 0.5 uM after 72 hrs in presence of 0.25 uM doxorubicin by MTT assay; type: functional
MCF7 [9] = assay: Cell cycle arrest in human MCF7 cells assessed as accumulation at S phase at 0.125 uM incubated for 72 hrs by PI staining based flow cytometric analysis (reference value: […] +/- 2.6 %); type: functional
[10] = target: ATP-dependent translocase ABCB1 (Homo sapiens, UniProt P08183); assay: Inhibition of P-gp activity in human MCF7/ADR cells at 1000 nM after 72 hrs by RT-PCR analysis relative to control; type: cell-based, NCI/ADR-RES; conditions: nci/adr-res, 72 h, 1 µM
ATP-dependent translocase ABCB1, sequence (P08183 whole entry): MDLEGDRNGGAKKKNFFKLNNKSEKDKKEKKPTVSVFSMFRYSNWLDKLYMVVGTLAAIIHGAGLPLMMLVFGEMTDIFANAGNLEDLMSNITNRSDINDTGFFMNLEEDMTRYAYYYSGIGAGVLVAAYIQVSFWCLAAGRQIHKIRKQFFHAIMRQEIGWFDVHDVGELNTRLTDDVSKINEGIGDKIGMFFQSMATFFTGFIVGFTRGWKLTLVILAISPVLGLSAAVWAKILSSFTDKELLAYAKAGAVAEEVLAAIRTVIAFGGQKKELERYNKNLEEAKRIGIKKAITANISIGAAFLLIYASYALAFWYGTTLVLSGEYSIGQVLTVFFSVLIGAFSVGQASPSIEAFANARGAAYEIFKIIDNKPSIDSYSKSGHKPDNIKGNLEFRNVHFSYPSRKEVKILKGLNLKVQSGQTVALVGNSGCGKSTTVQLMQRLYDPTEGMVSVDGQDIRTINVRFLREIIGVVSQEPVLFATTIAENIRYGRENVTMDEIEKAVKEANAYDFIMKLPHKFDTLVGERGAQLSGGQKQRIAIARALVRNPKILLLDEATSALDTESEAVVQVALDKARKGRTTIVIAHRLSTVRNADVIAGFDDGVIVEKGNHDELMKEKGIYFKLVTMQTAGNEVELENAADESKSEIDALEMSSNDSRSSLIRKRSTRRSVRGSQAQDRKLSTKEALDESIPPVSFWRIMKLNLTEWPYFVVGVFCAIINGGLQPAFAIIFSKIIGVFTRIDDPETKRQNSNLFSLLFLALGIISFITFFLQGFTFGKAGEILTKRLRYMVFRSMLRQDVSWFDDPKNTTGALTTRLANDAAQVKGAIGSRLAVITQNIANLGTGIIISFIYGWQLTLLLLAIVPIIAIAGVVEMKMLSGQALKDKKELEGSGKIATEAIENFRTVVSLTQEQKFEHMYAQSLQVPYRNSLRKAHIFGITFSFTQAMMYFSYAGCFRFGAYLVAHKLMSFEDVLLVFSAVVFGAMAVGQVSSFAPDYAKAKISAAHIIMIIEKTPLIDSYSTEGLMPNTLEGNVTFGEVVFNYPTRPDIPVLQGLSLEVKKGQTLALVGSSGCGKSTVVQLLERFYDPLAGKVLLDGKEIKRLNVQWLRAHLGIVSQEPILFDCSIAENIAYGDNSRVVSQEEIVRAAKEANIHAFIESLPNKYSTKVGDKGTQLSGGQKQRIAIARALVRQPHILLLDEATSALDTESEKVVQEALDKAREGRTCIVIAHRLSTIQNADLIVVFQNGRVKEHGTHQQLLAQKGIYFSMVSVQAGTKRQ

NCI/ADR-RES [11] = assay: Synergistic cytotoxicity against human MCF7/ADR cells assessed as combination index at 0.25 uM after 72 hrs in presence of 0.5 uM doxorubicin by MTT assay; type: functional
NCI/ADR-RES [12] = assay: Synergistic cytotoxicity against human MCF7/ADR cells assessed as combination index at 1 uM after 72 hrs in presence of 1 uM doxorubicin by MTT assay; type: functional
NCI/ADR-RES [13] = assay: Synergistic cytotoxicity against human MCF7/ADR cells assessed as combination index at 0.25 uM after 72 hrs in presence of 0.25 uM doxorubicin by MTT assay; type: functional

N#Cc1c2n(c3c(=O)n(-c4ccccc4)cnc13)CCCC2
Activity (MCF7 [1]): 5.5%
selectivity ratio [2]: 1.36
Activity (MCF7 [3]): 10.7%
viability at 0.5 µM (MCF7 [4]): 70.3%
Activity (MCF7 [5]): 77.8%
Activity (MCF7 [6]): 7.5%
IC50 (MCF7 [7]): 0.3 µM
CI (NCI/ADR-RES [8]): 1.9
Activity (MCF7 [9]): 13.4%
inhibition (INH) [10]: 220%
CI (NCI/ADR-RES [11]): 0.631
CI (NCI/ADR-RES [12]): 0.025
CI (NCI/ADR-RES [13]): 0.927

From ChEMBL document CHEMBL4819064, “Discovery of new pyrimidopyrrolizine/indolizine-based derivatives as P-glycoprotein inhibitors: Design, synthesis, cytotoxicity, and MDR reversal activities” (Eur J Med Chem, 2021)
